Assays:
[1] = target: T1, Mdm2 (Homo sapiens, UniProt Q00987); assay: Mdm2 HTRF binding assay (Table 2); conditions: read-out: Mdm2 HTRF IC50
Source text: An HTRF binding assay was developed using a biotinylated peptide containing the Mdm2-binding domain of p53 and a recombinant GST-tagged N-terminus of Mdm2 containing the p53-binding domain. HTRF is a proximity-based fluorescence energy transfer (FRET) assay that takes advantage of the unique time-resolved fluorescence of the lanthanide chelates, such as terbium and europium. HTRF IC50 values are provided for all key compounds (FIG. 13C, FIG. 19B, and Table 2).
Target sequence in this assay (Q00987 26-109 limits assumed): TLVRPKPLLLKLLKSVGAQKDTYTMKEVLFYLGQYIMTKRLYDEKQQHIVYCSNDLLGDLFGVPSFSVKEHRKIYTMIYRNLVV

[2] = target: T2, human cereblon (CRBN) complex (Homo sapiens, UniProt Q96SW2); assay: HTRF binding assay for Cereblon (Table 2)
T2 construct: purchased R & D systems
T2 sequence (Q96SW2 whole entry): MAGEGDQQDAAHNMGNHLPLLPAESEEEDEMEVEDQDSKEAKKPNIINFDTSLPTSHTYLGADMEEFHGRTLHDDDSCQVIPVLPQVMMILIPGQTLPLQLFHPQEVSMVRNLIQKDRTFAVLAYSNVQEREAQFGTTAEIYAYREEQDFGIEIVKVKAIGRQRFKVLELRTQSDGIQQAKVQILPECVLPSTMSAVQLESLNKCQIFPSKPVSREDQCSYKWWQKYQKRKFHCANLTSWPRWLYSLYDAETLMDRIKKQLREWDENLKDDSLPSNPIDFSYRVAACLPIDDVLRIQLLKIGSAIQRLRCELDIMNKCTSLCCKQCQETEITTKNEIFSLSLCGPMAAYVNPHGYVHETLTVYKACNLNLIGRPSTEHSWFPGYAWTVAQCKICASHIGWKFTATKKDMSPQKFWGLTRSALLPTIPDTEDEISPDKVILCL
T2 sequence (Q16531 whole entry partner): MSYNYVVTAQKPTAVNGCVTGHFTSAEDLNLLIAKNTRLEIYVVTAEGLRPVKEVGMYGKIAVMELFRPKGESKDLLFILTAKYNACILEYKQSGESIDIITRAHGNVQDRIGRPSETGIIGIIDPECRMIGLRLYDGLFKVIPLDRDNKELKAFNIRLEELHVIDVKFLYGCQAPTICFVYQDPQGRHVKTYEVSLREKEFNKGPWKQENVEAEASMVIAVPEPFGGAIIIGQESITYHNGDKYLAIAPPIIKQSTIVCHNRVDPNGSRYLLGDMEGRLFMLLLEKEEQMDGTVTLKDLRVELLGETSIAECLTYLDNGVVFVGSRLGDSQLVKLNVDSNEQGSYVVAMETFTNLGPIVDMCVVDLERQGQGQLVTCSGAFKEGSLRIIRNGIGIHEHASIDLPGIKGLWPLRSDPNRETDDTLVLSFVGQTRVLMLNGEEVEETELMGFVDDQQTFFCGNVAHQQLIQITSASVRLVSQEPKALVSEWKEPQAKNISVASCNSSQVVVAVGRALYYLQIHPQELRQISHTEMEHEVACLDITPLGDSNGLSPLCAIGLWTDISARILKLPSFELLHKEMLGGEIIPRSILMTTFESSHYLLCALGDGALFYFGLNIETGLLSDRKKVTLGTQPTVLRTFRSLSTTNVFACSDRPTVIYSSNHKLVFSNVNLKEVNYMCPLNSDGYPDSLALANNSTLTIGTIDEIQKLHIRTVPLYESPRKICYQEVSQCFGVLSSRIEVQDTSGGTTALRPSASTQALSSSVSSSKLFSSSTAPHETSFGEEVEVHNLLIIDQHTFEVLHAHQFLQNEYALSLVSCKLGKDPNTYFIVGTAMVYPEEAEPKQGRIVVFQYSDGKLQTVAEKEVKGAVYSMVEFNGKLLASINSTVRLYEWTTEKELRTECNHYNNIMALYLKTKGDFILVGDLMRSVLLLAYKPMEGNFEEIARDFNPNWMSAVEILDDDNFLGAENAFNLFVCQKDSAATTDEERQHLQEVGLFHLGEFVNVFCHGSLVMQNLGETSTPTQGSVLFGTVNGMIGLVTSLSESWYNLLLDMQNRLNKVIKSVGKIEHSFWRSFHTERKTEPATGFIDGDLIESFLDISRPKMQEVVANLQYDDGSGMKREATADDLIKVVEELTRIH
T2 sequence (Q13619 whole entry partner): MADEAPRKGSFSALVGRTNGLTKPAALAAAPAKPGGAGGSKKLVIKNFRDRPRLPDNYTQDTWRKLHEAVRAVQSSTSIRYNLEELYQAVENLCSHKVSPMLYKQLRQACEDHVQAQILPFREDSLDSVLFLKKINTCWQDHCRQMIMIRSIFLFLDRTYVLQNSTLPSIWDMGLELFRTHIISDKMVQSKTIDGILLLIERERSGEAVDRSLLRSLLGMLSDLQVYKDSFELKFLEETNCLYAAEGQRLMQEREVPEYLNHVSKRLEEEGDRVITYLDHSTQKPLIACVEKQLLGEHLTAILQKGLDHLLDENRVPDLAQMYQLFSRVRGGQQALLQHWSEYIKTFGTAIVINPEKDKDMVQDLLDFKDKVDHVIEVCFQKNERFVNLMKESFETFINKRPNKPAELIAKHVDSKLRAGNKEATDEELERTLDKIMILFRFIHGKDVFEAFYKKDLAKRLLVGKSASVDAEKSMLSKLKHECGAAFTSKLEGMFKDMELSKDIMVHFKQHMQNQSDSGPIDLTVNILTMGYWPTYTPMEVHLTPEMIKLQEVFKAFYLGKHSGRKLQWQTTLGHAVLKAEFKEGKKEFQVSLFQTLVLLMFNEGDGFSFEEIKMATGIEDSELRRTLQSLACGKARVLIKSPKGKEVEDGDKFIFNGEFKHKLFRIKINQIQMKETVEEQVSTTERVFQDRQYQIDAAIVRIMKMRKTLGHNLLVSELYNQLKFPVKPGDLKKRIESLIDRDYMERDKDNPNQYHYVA
T2 sequence (P62877 whole entry partner): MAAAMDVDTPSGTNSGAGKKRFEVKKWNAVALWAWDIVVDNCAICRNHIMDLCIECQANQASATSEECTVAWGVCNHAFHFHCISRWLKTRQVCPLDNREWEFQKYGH
Source text: (§1) Biochemical assays in 384-well format have established to assess the binding of newly synthesized PROTACs to the appropriate E3 ligase using HTRF technology. In these assays an anti-HIS antibody conjugated to terbium was used as the donor fluor, and either a Cy5 labeled small molecule probe, or a biotinylated peptide that is bound to a streptavidin acceptor.
Cereblon: Recombinant human cereblon (CRBN) complex, including CUL4A, RBX1, DDB1 and CRBN is purchased from R & D systems. This four-member protein complex has an N-terminal HIS tag on the CUL4A subunit. The CRBN complex is diluted in assay buffer containing anti-HIS-Tb Cryptate Gold (CisBio) and is added to low volume 384-well plates. Test compounds in 100% DMSO are added to the plates followed by the Cy5-labeled lenolidamide probe. After 1 hour the HTRF signal is measured on the Envision. Data are normalized to % inhibition. The typical signal-to-noise is 5:1. Bi-functional molecules containing the Cereblon ligands are tested in TABLE 2 (see YX-02-041).

[3] = target: T1, Mdm2; assay: In-Cell Western, mut p53 MDA-MB-231 cell line; format: cell-based; parameters: endogenous in cells; host or cells: MCF7 (A8); MDA-MB-231 (A9); conditions: mutant p53 MDA-MB-231
Procedure: (§2) Cells were seeded at decreasing cell number from 15K cells to 2K cells. The Mdm2 primary antibody was tested at 1:200 and 1:300 dilution. The secondary antibody conjugated to IRDye800CW was used with 1:800 dilution, and CellTag 700 Stain was used at 1:1000 dilution as manufacture recommended. The linearity of cell number versus signal was generated with Prism. The signal over background ratio was also calculated.
(§3) The potential PROTACs were evaluated in the wt p53 MCF7 cell line and in the mut p53 MDA-MB-231 cell line. Importantly these were compared to MD-224, which was recently reported to potently degrade Mdm2 in RS4; 11 leukemia cells (Li et al., 2019). Assay linearity was performed confirming a strong 4-fold signal to noise in the assay. A series of bi-functional molecules were then treated and evaluated for protein level in the assay over time from 2 h-48 h. […] In this wt p53 cancer cell line the stabilization of p53 (FIG. 15B), and subsequent p53-mediated transcriptional upregulation of Mdm2 make it difficult to observe degradation. […] These compounds were evaluated in the mutant p53 cancer cells. […] In this cell line, it takes approximately 16-24 h to detect the degradation. […] The difference in the molecules is that MD-224 utilizes a CRBN recruiting ligand.
Target sequence in this assay (Q00987 whole entry, the tested form may be a part): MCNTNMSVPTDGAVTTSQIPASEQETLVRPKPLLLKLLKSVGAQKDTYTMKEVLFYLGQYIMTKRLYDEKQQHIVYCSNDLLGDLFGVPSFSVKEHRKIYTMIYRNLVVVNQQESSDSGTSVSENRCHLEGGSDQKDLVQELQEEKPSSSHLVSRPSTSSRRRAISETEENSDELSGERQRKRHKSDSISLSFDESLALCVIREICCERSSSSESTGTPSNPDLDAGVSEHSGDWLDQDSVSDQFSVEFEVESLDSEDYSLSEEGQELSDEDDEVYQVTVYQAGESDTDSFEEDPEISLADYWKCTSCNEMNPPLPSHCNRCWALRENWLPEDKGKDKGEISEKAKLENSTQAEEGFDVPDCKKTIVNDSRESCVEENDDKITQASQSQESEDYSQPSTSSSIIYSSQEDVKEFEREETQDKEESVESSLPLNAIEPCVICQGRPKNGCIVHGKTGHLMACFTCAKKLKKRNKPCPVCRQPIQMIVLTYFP

[4] = tested on: mut p53 MDA-MD-231 cells; assay: Live cell count with CellTag700 Stain in ICW format
Procedure: Cells are seeded in 96 half area well plates (black clear bottom) and cultured overnight. Then they are treated with compounds, fixed with 4% paraformaldehyde for 20 minutes, and permeabilized in 0.1% Triton. They are then treated with the primary antibody and secondary antibody conjugated to IRDye800CW or treated with CellTag 700 Stain. The plates are then scanned on the OdysseyCLX and the data processed to provide a dose response curve.
Since genetic deletion of Mdm2 induces p73 and induces apoptosis in p53 mutant and deficient cancer cells, YX-02-030 and YX-02-228 were evaluated for their effect on cell viability. First, the CellTag700 Stain was utilized to count the number of live cells in the ICW format.

[5] = tested on: MCF7; assay: Cytotoxicity to wild type p53 cells; format: cell-based; conditions: Homo sapiens
[6] = target: VHL (Homo sapiens, UniProt P40337); assay: HTRF binding assay for VHL (Table 2)
Chain of VHL (P40337 whole entry): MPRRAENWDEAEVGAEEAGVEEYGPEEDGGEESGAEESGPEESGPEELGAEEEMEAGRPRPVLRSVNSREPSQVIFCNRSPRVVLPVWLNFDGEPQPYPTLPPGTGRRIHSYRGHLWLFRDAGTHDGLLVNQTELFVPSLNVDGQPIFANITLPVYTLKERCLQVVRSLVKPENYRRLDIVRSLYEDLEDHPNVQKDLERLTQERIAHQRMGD
Chain of VHL (Q15370 whole entry partner): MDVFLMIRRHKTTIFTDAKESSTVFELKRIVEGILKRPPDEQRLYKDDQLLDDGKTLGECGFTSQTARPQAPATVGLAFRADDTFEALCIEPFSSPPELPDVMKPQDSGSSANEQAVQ
Chain of VHL (Q15369 whole entry partner): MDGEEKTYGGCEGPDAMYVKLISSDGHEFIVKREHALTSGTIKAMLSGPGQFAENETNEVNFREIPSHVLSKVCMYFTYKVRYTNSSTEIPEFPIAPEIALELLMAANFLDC
Source text: as §1

[7] = tested on: Mdm2-/-p53-/- sarcoma cells; assay: Murine Mdm2-/-p53-/- sarcoma cells, MTT; format: cell-based, mouse; conditions: MTT assay, 48 hrs
Source text: A-B. Murine Mdm2+/+p53-null sarcoma cells treated with Mdm2 PROTAC (YX-02-030), control YX-02-023 (−), or vehicle (DMSO). A. Western blots after 24 hrs (cleaved caspase 3, CC3. Mdm2^−/−p53^−/− fibroblasts were a control for the Western blot). B. Dose response curve (MTT assay, 48 hrs). C. Dose response curves of murine Mdm2^−/−p53^−/− sarcoma cells treated with Mdm2 PROTAC (YX-02-030), negative controls (−), a Bcl2/Bclx/Bclw inhibitor (+), or vehicle control (MTT assay, quadruplicate, 48 hrs- MTT assay, B-C graphed relative to DMSO).

[8] = target: T3, VHL complex (Homo sapiens, UniProt P40337); assay: Inhibition of HIF-1α peptide binding to the VHL complex using HTRF (Table 3); conditions: mean ± S.E.M. of three replications; read-out: VHL-HIFa peptide IC50
T3 construct: purchased R&D systems E3-655-025
T3 sequence (P40337 whole entry): as the sequence (P40337 whole entry) above
T3 sequence (Q15370 whole entry partner): as the sequence (Q15370 whole entry partner) above
T3 sequence (Q15369 whole entry partner): as the sequence (Q15369 whole entry partner) above
T3 sequence (Q13617 whole entry partner): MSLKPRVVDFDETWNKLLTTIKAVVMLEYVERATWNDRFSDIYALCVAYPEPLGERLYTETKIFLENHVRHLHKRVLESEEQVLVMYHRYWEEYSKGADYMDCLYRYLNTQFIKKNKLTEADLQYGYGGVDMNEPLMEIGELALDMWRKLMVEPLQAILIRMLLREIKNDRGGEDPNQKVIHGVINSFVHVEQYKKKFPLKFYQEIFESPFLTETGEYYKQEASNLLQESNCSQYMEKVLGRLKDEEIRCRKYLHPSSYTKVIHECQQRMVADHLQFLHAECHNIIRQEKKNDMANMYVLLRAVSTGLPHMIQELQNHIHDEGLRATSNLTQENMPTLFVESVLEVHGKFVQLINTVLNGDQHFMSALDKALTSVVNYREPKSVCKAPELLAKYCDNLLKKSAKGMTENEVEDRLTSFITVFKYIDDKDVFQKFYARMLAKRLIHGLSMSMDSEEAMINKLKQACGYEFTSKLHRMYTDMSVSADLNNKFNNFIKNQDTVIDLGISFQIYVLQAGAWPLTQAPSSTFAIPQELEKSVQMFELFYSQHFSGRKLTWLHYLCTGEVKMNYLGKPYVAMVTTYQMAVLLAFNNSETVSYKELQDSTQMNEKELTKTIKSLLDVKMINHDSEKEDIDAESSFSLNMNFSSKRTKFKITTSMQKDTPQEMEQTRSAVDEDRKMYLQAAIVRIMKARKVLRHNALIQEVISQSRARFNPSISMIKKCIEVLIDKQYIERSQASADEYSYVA
T3 sequence (P62877 whole entry partner): as the sequence (P62877 whole entry partner) above
Procedure: Assays contained 2 nM of HIS-VHL complex (R&D systems, E3-655-025), 2 nM of biotin-hydroxyproline-HIF1α peptide (Biotin-[…] (SEQ ID NO: 2), X=hydroxyproline), 0.3 nM anti-HIS-Tb HTRF donor antibody and 4 nM streptavidin-d2 HTRF acceptor (PerkinElmer) in a final volume of 10 μL of 25 mM HEPES, pH 7.4, 150 mM NaCl, 5 mM DTT, 0.005% Tween20 in white low volume 384-well plates. Both HIS-VHL complex and biotin-HIF1α peptide were pre-incubated with their respective HTRF antibodies for 15 min. Test compounds were solubilized at 10 mM in DMSO and concentration series was added to the assay plate using the Echo 650 acoustic liquid handling system by direct dilution. The final amount of DMSO added to the assay was 100 nL […]. Compounds were pre-incubated with HIS-VHL complex before the addition of the biotin-HIF1α peptide. After a 2 hr incubation, the HTRF signal was measured using the ClarioStar plate reader (BMG Labtech). […] IC50 values were determined from nonlinear regression fits of a data to a four parameter dose-response equation using XLFit (IDBS). Data are the means±S.E.M. of three replications. The data is described in Table 3 above.

[9] = target: T1, Mdm2; assay: In-Cell Western, wt p53 MCF7 cell line; format: cell-based; parameters: endogenous in cells; host or cells: MCF7 (A8); MDA-MB-231 (A9); conditions: wt p53 MCF7, 2 h-48 h
Procedure: as §2, §3
Target sequence in this assay (Q00987 whole entry, the tested form may be a part): as the sequence (Q00987 whole entry, the tested form may be a part) above

## CCOc1cc(C(C)(C)C)ccc1C1=NC(C)(c2ccc(Cl)cc2)C(C)(c2ccc(Cl)cc2)N1C(=O)N1CCN(CC(=O)N[C@H](C(=O)N2C[C@H](O)C[C@H]2C(=O)NCc2ccc(-c3scnc3C)cc2)C(C)(C)C)CC1 (stereo in doubt) [YX-02-230, 1-(2-(2-(4-((4S,5R)-2-(4-(tert-butyl)-2-ethoxyphenyl)-4,5-bis(4-chlorophenyl)-4,5-dimethyl-4,5-dihydro-1H-imidazole-1-carbonyl)piperazin-1-yl)acetamido)-3,3-dimethylbutanoyl)-4-hydroxy-N-(4-(4-methylthiazol-5-yl)benzyl)pyrrolidine-2-carboxamide]
[1]
  IC50: 0.018 µM
[2]
  IC50: > 10 µM

## CCOc1cc(C(C)(C)C)ccc1C1=N[C@@](C)(c2ccc(Cl)cc2)[C@@](C)(c2ccc(Cl)cc2)N1C(=O)N1CCN(CC(=O)NCCCCNC(=O)COc2cccc3c2C(=O)N(C2CCC(=O)NC2=O)C3=O)CC1 (mixture of isomers) [YX-02-041, 2-(4-((4S,5R)-2-(4-(tert-butyl)-2-ethoxyphenyl)-4,5-bis(4-chlorophenyl)-4,5-dimethyl-4,5-dihydro-1H-imidazole-1-carbonyl)piperazin-1-yl)-N-(4-(2-((2-(2,6-dioxopiperidin-3-yl)-1,3-dioxoisoindolin-4-yl)oxy)acetamido)butyl)acetamide]
[3]
  Mdm2 degradation: did not provide robust degradation
[1]
  IC50: 0.003 µM
[4]; other studies, compared with MCF7
  cytotoxicity to mutant p53 cells: much less cytotoxic
[5]
  IC50: ~20 µM
[6]
  IC50: > 10 µM

## CC1(C)CCC(c2ccc(Cl)cc2)=C(CN2CCN(c3ccc(C(=O)NS(=O)(=O)c4ccc(N[C@H](CCN5CCOCC5)CSc5ccccc5)c(S(=O)(=O)C(F)(F)F)c4)cc3)CC2)C1 [ABT-263/Navitoclax, Navitoclax, reference compound]
[7]
  response of Mdm2-/-p53-/- sarcoma cells: responsive

## COc1ccc(C2=N[C@@H](c3ccc(Cl)cc3)[C@@H](c3ccc(Cl)cc3)N2C(=O)N2CCNC(=O)C2)c(OC(C)C)c1 [Nutlin-3, reference compound]
[8]
  IC50: > 10 µM

## O=C1CCC(N2Cc3c(C#CCCCNC(=O)c4ccc(NC(=O)[C@@H]5NC6(CCCCC6)[C@@]6(C(=O)Nc7cc(Cl)ccc76)[C@H]5c5cccc(Cl)c5F)cc4)cccc3C2=O)C(=O)N1 (stereo partly drawn) [MD-224, reference compound]
[3]
  Mdm2 degradation: did not reduce Mdm2 protein level
[4]; after 24 h and 48 h treatment
  cytotoxic effect, number of live cells: no cytotoxic effect
[9]
  Mdm2 protein level: modest degradation

Reference: patent US20260053931A1, “MDM2 TARGETING PROTACS” (THE WISTAR INSTITUTE OF ANATOMY AND BIOLOGY, priority 2023, published 2026)
